{"source": "patent US20210267948A1", "about": "“TREATMENT OF CANCER” (CITY OF HOPE, priority 2017, published 2021)", "key": {"ribonucleotide reductase": {"target": "T1, ribonucleotide reductase (Homo sapiens, UniProt P31350)", "T1 construct": "from tissue; host or cells: MOLT-4 subcutaneous tumour xenografts from mice dosed orally with COH29", "T1 sequence (P31350 whole entry)": "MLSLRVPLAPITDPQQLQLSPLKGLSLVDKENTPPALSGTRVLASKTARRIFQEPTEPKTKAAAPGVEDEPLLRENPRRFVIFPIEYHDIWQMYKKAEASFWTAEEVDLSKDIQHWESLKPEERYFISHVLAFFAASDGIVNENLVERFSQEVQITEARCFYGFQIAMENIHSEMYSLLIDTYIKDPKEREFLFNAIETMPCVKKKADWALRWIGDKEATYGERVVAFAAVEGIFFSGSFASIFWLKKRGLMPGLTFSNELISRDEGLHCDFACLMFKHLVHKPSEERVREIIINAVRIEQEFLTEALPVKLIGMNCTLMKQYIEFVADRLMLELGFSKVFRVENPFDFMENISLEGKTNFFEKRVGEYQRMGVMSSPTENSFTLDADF", "assay": "RNR activity and dNTP pools in MOLT-4 tumor xenografts", "type": "in vivo, mouse", "conditions": "MOLT-4 xenografts", "procedure": "(§1) FIGS. 12A-12D depict the activity of COH29 in mouse xenografts. Cancer cells were implanted and allowed to grow at the subcutaneous site until the tumor was measurable. Subcutaneous xenograft growth curves for leukemic-(MOLT-4) mice treated for 12 days with oral COH29 in twice-daily dosing at 50 and 100 mg/kg (FIG. 12A) and for ovarian cancer bearing mice (TOV112D) treated for 7 days with 200, 300, or 400 mg/kg of oral COH29 (FIG. 12B) (shown are the average±SDs for 4 animals/group). FIG. 12C depicts the activity of RNR in MOLT-4 tumor xenografts from mice treated with vehicle (solutol-15) or 100 mg/kg of oral COH29 for 12 days. FIG. 12D depicts the effect of oral COH29 on intratumoral dTNP pools from MOLT-4 tumor xenografts."}, "HCC1937+BRCA1 tumors": {"system": "HCC1937+BRCA1 tumors", "assay": "Orthotopic tumor model, HCC1937+BRCA1", "type": "in vivo, mouse", "conditions": "HCC1937+BRCA1 in mammary fat pads, NSG mice, daily oral 400 mg/kg, 28 days", "procedure": "Orthotopic Tumor Model. Experiments in mice were conducted under a protocol approved by the IACUC of City of Hope. Because HCC1937 and HCC1937+BRCA1 cells form slow-growing tumors, they were implanted using MATRIGEL™ (Becton-Dickinson Biosciences). To establish tumors, 4×10^6 cells in 200 μL serum-free medium containing 50% MATRIGEL™ were injected into the mammary fat pads around the inguinal area of a pair of 8 week old female NSG mice. Once the initial tumors reached 13 mm in diameter, they were dissected out, minced into 3 mm pieces and implanted into the inguinal area of the mammary fat pads of the experimental mice. Tumors were measured over a 28-day period, and for each time point, the student t-test was used to determine the statistical significance between daily gavage with 400 mg/kg COH29 in 30% solutol and corresponding vehicle control. Thep value less than 0.05 (2 sides) was considered to indicate statistical significance"}, "PARP1 [1]": {"target": "T2, PARP1 (Homo sapiens, UniProt P09874)", "T2 construct": "endogenous in cells; host or cells: HCC1937, HCC1937+BRCA1, UWB1.289 and UWB1.289+BRCA1 human cancer cells (lysates)", "T2 sequence (P09874 whole entry)": "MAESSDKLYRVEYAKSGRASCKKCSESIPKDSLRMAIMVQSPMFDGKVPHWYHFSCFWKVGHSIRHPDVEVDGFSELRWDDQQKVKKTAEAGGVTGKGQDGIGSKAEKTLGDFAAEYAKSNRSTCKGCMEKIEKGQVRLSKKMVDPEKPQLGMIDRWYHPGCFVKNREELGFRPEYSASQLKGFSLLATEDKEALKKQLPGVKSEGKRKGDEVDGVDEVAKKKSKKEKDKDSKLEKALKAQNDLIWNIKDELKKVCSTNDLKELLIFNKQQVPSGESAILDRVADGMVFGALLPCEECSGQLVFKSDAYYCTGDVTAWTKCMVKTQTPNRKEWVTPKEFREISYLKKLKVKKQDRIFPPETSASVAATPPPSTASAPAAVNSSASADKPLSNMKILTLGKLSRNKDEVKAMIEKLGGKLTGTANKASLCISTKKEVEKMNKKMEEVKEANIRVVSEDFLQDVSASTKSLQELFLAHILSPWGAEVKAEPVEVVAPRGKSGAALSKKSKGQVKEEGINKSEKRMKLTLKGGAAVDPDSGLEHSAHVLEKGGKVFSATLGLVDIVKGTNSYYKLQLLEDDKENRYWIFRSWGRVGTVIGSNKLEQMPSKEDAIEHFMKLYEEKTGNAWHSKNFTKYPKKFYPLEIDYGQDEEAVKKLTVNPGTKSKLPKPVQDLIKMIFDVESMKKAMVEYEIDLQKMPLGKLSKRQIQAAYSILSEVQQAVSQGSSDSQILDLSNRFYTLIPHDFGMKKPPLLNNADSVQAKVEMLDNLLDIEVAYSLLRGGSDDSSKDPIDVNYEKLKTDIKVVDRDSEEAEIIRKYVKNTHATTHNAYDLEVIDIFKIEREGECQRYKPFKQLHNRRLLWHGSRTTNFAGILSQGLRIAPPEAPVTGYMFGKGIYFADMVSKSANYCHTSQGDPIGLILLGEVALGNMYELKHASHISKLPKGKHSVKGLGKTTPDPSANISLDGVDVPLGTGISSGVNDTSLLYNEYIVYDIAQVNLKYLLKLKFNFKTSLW", "assay": "PARP1 Chemiluminescent Assay on lysates of treated cells", "type": "cell-based", "procedure": "The PARP1 activity was determined using the PARP1 Chemiluminescent Assay Kit (BPS Bioscience, San Diego) according to the manufacturer's protocol. Briefly, the ribosylation reaction was carried out with activated DNA in PARP assay buffer using test inhibitor, positive control, substrate control and blank reactions, for 1 hour at 25° C. Detection was by streptavidin-HRP with chemiluminescent substrate A and B read in a luminometer. NZebrafish (Danio rerio) were obtained from zebrafish Core facility of Taipei Medical University and maintained at 28° C. on a 14 h light/10 h dark cycle. Embryos were incubated at 28° C. and different developmental stages were determined as described (25). Wild-type embryos were treated with different concentrations of HU (0, 5, 10, 20, 50 mM) or COH29 (0, 10, 20, 50, 100 μM) at 20 hpf to evaluate the mutagenic effect. Fifteen embryos were treated per well condition. […] Embryos were observed using an Olympus IX70-FLA inverted fluorescence microscope. Images were taken using SPOT digital camera system (Diagnostic Instruments, Sterling Heights, Mich., USA) and assembled with Image) software (26).\nTo determine if COH29 inhibited hPARP1, PARP1 activity was examined in lysates of cells treated with or without COH29 for 4 h, 8 h or 24 h."}, "[2]": {"system": "human cancer cells resistant to gemcitabine, hydroxyurea or cisplatin", "assay": "Growth of drug-resistant human cancer cells", "type": "cell-based", "conditions": "KB-Gem, KBHURs and others, 72 h", "procedure": "FIGS. 11A-11B depict the activity of COH29 in gemcitabine (KB-Gem) (FIG. 11A) and hydroxyurea (KBHURs) (FIG. 11B) resistant cell lines in 72 h toxicity assay. Hydroxyurea (concentration 2-50 mmol/L), gemcitabine (concentration 20-500 μmon), and COH29 (concentration 2-250 μmon) were used for real-time growth curves for KBHUR and gemcitabine, respectively, based on comparison of 72-h viability of hydroxyurea-resistant or gemcitabine-resistant cells to COH29."}, "MOLT-4 xenograft tumors": {"system": "MOLT-4 xenograft tumors", "assay": "MOLT-4 mouse xenograft", "type": "in vivo", "conditions": "MOLT-4, oral twice daily 50 and 100 mg/kg, 12 days", "procedure": "as §1"}, "PARP1 [3]": {"system": "PARP1", "assay": "PARP1 protein expression by Western blot", "type": "cell-based, human", "procedure": "FIGS. 3A-3B. […] (FIG. 3A): the effect of COH29 on PARP1 activity in isogenic pairs of breast (HCC1937) and ovarian (UWB1.289) cancer cell lines expressing mutant or wt BRCA1 (wt=+BRCA1 in each case) was assessed in duplicate using procedures described in Materials & Methods; FIG. 3B: the effect of COH29 on PARP1 protein expression in the isogenic HCC1937/HCC1937+BRCA1 cell lines was assessed by Western blot analysis using anti-human PARP1 antibody as the primary antibody. Loading control is β-actin.\nFor subcellular fractionation, cells were trypsinized and washed with cold PBS solution twice. […] Following centrifugation at 1,000 g for 5 min, the supernatant was collected (i.e., cytoplasmic fraction) and pellets were washed with the same buffer twice. The washed samples were extracted for 40 min on ice with fractionation buffer containing 0.5% NP-40 for nuclear fraction. All the samples were sonicated and clarified by centrifugation at 16,000 g for 15 min. Protein concentrations of all fractions were determined with Bio-Rad Protein Assay (Bio-Rad Laboratories, Hercules, Calif.). Immunoblotting was performed as described previously (21,22). Briefly, equal amounts of boiled protein samples were subjected to SDS-polyacrylamide gel electrophoresis (PAGE) and transferred onto nitrocellulose membranes (Bio-Rad Laboratories). Membranes were blocked for 1 hour in 3% BSA in Tris buffered saline containing 0.05% Tween 20 (TBST) and incubated for 1 hour with primary antibody (1:500 or 1:1000) diluted in TBST containing 1% BSA. After two washes with TBST, membranes were incubated for 1 hour with horseradish peroxidase-conjugated secondary Abs (1:3000 dilution) at room temperature. The immunoblots were visualized on film with the West-Q chemi-luminescence kit (GenDEPOT, Barker, Tex.)."}, "tumor xenografts": {"system": "tumor xenografts", "assay": "Pilot tumor xenograft study", "type": "in vivo", "conditions": "daily oral administration, IL2-rg(KO)/NOD-Scid mice", "source_text": "Toxicity studies in rats and dogs at doses equivalent to 10× that dose have not shown toxicity at 10 or 21 days."}, "[4]": {"conditions": "HCC1937 lacking BRCA1, 24 h incubation"}, "[5]": {"conditions": "UWB1.289 lacking BRCA1, 8 h treatment"}}, "data": [{"smiles": "O=C(Nc1nc(-c2ccc(O)c(O)c2)c(-c2ccccc2)s1)c1ccc(O)c(O)c1", "note": "[COH29, N-(4-(3,4-dihydroxyphenyl)-5-phenylthiazol-2-yl)-3,4-dihydroxybenzamide]", "values": [{"measurement": "tumor ribonucleotide reductase activity", "setting": "ribonucleotide reductase; 100 mg/kg oral, 12 days", "value": "reduced"}, {"measurement": "intratumoral dNTF pools", "setting": "ribonucleotide reductase; oral COH29", "value": "decrease"}, {"measurement": "tumor size vs vehicle controls", "setting": "HCC1937+BRCA1 tumors", "value": "not significantly smaller"}, {"measurement": "PARP1 activity decreased by", "setting": "PARP1 [1]; HCC1937+BRCA1, 24 h incubation", "value": 12.66, "unit": "%"}, {"measurement": "PARP1 activity, COH29 treated", "setting": "PARP1 [1]; HCC1937+BRCA1, 24 h incubation", "value": 2041097, "unit": "cps"}, {"measurement": "PARP1 activity decreased by", "setting": "PARP1 [1]; [4]", "value": 41.08, "unit": "%"}, {"measurement": "PARP1 activity, COH29 treated", "setting": "PARP1 [1]; [4]", "value": 427851, "unit": "cps"}, {"measurement": "PARP1 activity rose by", "setting": "PARP1 [1]; UWB1.289+BRCA1, 8 h treatment", "value": 46.31, "unit": "%"}, {"measurement": "PARP1 activity, COH29 treated", "setting": "PARP1 [1]; UWB1.289+BRCA1, 8 h treatment", "value": 2129944, "unit": "cps"}, {"measurement": "PARP1 activity decreased by", "setting": "PARP1 [1]; [5]", "value": 31.79, "unit": "%"}, {"measurement": "PARP1 activity, COH29 treated", "setting": "PARP1 [1]; [5]", "value": 774611, "unit": "cps"}, {"measurement": "growth of resistant cancer cells", "setting": "[2]", "value": "suppresses the growth"}, {"measurement": "xenograft tumor growth", "setting": "MOLT-4 xenograft tumors", "value": "inhibited"}, {"measurement": "PARP1 protein level", "setting": "PARP1 [3]; HCC1937 BRCA1-defective, 24 h", "value": "attenuated PARP1 protein"}, {"measurement": "PARP1 protein level", "setting": "PARP1 [3]; HCC1937 cells irrespective of BRCA1 status, 4 h", "value": "Little reduction"}, {"measurement": "lowest dose observed to inhibit growth of tumor xenografts", "setting": "tumor xenografts", "value": 50, "unit": "mg/kg"}]}]}
